Reference: patent US6184206A, “Integrin ligand dissociators” (The Burnham Institute, priority 1998, dated 2001)

Assays:
[1] = target: T1, purified IIb-IIIa (Homo sapiens, UniProt P05106+P08514); test: Competition binding to purified IIb-IIIa immobilized in microtiter plates; conditions: 125I-Fab-9 challenged with unlabeled fibrinogen (FIG. 1B)
Experimental: FIGS. 1A and 1B. Fibrinogen and Fab-9 bind distinct sites on IIb-IIIa. Studies were conducted with purified IIb-IIIa to determine whether Fab-9 (an RGD mimic) and fibrinogen bind to the same site on the integrin. IIb-IIIa was immobilized in microtiter plates and was allowed to bind either ^125 I-fibrinogen (FIG. 1A) or to ^125 I-Fab-9 (FIG. 1B). The binding of ^125 I-fibrinogen was challenged with unlabeled Fab-9. Similarly, the binding of ^125 I-Fab-9 was challenged with unlabeled fibrinogen.
To determine if fibrinogen and Fab-9 actually bind the same site on IIb-IIIa, a series of competition binding studies were carried out. The ability of the two ligands to compete for binding to IIB-IIIa was measured. Fab-9 blocked the binding of fibrinogen to IIB-IIIa (FIG. 1A). […] These sites are designated as Site I, which binds to Fab-9 and Site II, which interacts with fibrinogen (FIG. 2).

[2] = target: T1, purified IIb-IIIa; test: Surface Plasmon Resonance, real-time dissociation of ligands from IIb-IIIa; format: binding; conditions: fibrinogen immobilized on sensor chip, without 52012 (FIG. 4B)
Experimental: FIGS. 4A and 4B. Measuring the ability of 52012 to dissociate fibrinogen and Fab-9 from IIb-IIIa in real time. Studies were performed with Surface Plasmon Resonance to examine the ability of 52012 to induce the dissociation of ligands from IIb-IIIa. Fab-9 (FIG. 4A) or fibrinogen (FIG. 4B) were immobilized on the sensor chip and then allowed to bind to purified IIb-IIIa. At a specific time, 52012 was introduced by injection into the flow cell.
In one embodiment, ILDs can be identified by the ability to increase the rate of dissociation between an integrin and its natural ligand, or a known mimic of its natural ligand, with Surface Plasmon Resonance (SPR), for example, using the BIACORE Surface Plasmon Resonance™ instrument. SPR is a technique that measures ligand association and dissociation in "real time." To screen for an ILD using plasmon resonance, the following steps would be taken:
It is important to note that the configuration of the assay could take several different forms. For example, rather than immobilizing the integrin on the sensor chip, one could immobilize the ligand. In such case, the integrin would be allowed to bind the immobilized ligand prior to measuring dissociation rates.
To verify the effect of RGD-type ligands on the dissociation of fibrinogen from IIB-IIIa, dissociation rates were measured in real time using Surface Plasmon Resonance (SPR).

T1 sequence (P08514 32-887 limits assumed): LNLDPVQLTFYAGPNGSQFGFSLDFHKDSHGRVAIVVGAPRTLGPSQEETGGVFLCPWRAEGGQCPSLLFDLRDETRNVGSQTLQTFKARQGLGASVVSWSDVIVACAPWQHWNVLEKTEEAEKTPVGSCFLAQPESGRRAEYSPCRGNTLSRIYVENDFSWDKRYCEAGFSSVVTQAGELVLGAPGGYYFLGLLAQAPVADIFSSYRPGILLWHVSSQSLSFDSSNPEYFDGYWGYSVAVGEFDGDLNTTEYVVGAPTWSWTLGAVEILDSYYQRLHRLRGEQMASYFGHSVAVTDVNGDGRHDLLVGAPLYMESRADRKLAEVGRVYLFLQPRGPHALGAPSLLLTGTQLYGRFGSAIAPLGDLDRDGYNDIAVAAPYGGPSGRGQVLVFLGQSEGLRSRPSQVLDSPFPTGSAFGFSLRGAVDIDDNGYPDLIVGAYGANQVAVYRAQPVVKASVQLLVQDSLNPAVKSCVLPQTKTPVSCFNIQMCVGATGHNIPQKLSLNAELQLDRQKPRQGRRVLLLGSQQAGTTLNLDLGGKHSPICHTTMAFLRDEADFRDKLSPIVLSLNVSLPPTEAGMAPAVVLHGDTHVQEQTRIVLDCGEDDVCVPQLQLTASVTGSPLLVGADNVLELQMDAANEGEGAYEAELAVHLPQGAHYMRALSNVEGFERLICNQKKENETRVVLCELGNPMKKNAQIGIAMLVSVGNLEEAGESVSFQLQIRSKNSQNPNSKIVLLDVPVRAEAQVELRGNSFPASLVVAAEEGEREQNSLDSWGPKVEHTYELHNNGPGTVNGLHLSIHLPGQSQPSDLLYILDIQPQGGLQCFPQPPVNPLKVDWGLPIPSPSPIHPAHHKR
T1 sequence (P08514 891-1039 limits assumed): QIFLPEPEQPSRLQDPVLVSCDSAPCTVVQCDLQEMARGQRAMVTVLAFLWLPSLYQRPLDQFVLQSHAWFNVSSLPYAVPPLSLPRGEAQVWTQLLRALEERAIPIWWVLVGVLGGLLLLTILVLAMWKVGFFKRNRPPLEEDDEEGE
T1 sequence (P05106 27-788): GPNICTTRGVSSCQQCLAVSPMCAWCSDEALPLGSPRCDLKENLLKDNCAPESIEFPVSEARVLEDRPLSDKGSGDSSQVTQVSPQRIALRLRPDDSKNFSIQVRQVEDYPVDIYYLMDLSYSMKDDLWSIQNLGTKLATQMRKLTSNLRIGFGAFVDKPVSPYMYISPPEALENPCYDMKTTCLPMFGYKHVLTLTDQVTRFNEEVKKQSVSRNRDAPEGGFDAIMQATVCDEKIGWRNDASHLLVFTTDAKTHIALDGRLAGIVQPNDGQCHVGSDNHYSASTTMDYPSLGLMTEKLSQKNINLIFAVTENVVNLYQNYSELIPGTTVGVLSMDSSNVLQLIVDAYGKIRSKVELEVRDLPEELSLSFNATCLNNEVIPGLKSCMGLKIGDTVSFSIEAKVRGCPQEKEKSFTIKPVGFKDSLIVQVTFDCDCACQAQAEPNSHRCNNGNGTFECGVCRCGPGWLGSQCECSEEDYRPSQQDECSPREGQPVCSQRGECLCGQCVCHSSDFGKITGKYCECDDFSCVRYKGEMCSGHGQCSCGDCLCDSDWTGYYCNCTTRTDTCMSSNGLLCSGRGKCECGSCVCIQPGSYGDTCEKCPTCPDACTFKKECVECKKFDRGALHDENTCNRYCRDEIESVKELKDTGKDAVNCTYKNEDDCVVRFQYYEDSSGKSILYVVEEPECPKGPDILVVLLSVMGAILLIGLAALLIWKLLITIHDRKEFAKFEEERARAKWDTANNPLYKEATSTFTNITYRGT

Question: Which results are given for fibrinogen?
Answer: blocking of binding of 125I-Fab-9 to IIb-IIIa [1]: failed to block; off-rate of fibrinogen from IIb-IIIa before 52012 [2]: 6e-05 s⁻¹
